Experimental data reported in ChEMBL document CHEMBL1201862, “PubChem BioAssay data set” (2004).
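The compound was tested at five concentrations on cells cultured in 96-well plates, with a 48-hour exposure period. Here, GI50 denotes the concentration required for 50% inhibition of growth.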 Calls of active or inactive are those of the source. Cut-off read from the data, not from the text of the source: active = GI50 up to about 1.1 µM and inactive = higher.

Key:
Test in all cases: inhibition of tumour cell growth, NCI panel, 48 h
[1] = tested on: HCC 2998
[2] = tested on: A498
[3] = tested on: MOLT-4
[4] = tested on: HOP-62
[5] = tested on: HL-60
[6] = tested on: LOX IMVI
[7] = tested on: SF-268
[8] = tested on: HT-29
[9] = tested on: SNB-19
[10] = tested on: UACC-257
[11] = tested on: SF-295
[12] = tested on: HCT-116
[13] = tested on: MCF7
[14] = tested on: SK-MEL-28
[15] = tested on: Malme-3M
[16] = tested on: EKVX
[17] = tested on: RPMI-8226
[18] = tested on: RXF 393
[19] = tested on: MDA-MB-435
[20] = tested on: IGROV-1

| SMILES | GI50 [1] | GI50 [2] | GI50 [3] | GI50 [4] | GI50 [5] | GI50 [6] | GI50 [7] | GI50 [8] | GI50 [9] | GI50 [10] | GI50 [11] | GI50 [12] | GI50 [13] | GI50 [14] | GI50 [15] | GI50 [16] | GI50 [17] | GI50 [18] | GI50 [19] | GI50 [20] |
| --- | --- | --- | --- | --- | --- | --- | --- | --- | --- | --- | --- | --- | --- | --- | --- | --- | --- | --- | --- | --- |
| Nc1ncnc2c1ncn2C1C=C(CO)C(O)C1O (stereo not given) | 4.72 µM (inactive) | 15.9 µM (inactive) | 0.249 µM (active) | 3.26 µM (inactive) | 0.34 µM (active) | 3 µM (inactive) | 10.1 µM (inactive) | 2.06 µM (inactive) | 16 µM (inactive) | 1.35 µM (inactive) | 24.5 µM (inactive) | 0.0509 µM (active) | 0.197 µM (active) | 1.23 µM (inactive) | 5.33 µM (inactive) | 25.8 µM (inactive) | 0.256 µM (active) | 9.59 µM (inactive) | 3.08 µM (inactive) | 7.74 µM (inactive) |
| COC(=O)C1=C(C(=O)OC)SC2(S1)C1=C(CCC1)SC(C(=O)OC)=C2C(=O)OC | 16.3 µM (inactive) | 9.12 µM (inactive) | 2.29 µM (inactive) | 12.7 µM (inactive) | 6.76 µM (inactive) | 3.33 µM (inactive) | 15.5 µM (inactive) | 4.58 µM (inactive) | 19.6 µM (inactive) | 15.7 µM (inactive) | 15.6 µM (inactive) | 1.77 µM (inactive) | 4.33 µM (inactive) | 10.7 µM (inactive) | 17.9 µM (inactive) | 14.9 µM (inactive) | 1.86 µM (inactive) | 4.62 µM (inactive) | 12.9 µM (inactive) | 12.9 µM (inactive) |
